Results taken from the supplement of paper PMC10307832.

Legend:
Assay in all cases: relative viability (nuclei count vs DMSO), 5 days (fraction); higher = more cells survive
Bortezomib = compound: CC(C)C[C@H](NC(=O)[C@H](Cc1ccccc1)NC(=O)c1cnccn1)B(O)O [Bortezomib]
Summary of the method: (§1)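 Lung cancer cell lines in 1536-well plates were exposed by pinning to five library-drug doses (not always all listed) √10 apart, following an overnight hold at 37 °C. MetaXpress counted Hoechst-stained nuclei from 4× images taken after 5 days without medium change. Viability is the median ratio of treated-well to vehicle-well nuclei across plates. Plates required control CV below 25% and at least one doubling.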

[1] = compound: CC1=CC(=NN1)NC2=CC(=NC(=N2)/C=C/C3=CC=CC=C3)N4CCN(CC4)C
Summary of the method: as §1

Obatoclax = compound: COC1=CC(c2cc3ccccc3[nH]2)=N/C1=C\c1[nH]c(C)cc1C [Obatoclax]
Summary of the method: as §1

For NCI-H647, which relative viability (Bortezomib; 0.0002 µM) is on record?
The relative viability was 0.865.

And the relative viability (Bortezomib; 0.000632 µM)?
The relative viability was 0.812.

And the relative viability (Bortezomib; 0.002 µM)?
The relative viability was 0.55.

And the relative viability (Bortezomib; 0.002 µM, anchor plate)?
Its relative viability is 0.962.

What about the relative viability (Bortezomib; 0.006325 µM) of the same cell line?
The relative viability was 0.0435.

What about the relative viability (Bortezomib; 0.02 µM) of the same cell line?
The relative viability was 0.0339.

What about the relative viability ([1]; 0.08 µM) of the same cell line?
The relative viability was 0.868.

And the relative viability ([1]; 0.253 µM)?
The relative viability was 1.05.

What about the relative viability ([1]; 0.8 µM) of the same cell line?
The relative viability was 0.935.

And the relative viability ([1]; 2.53 µM)?
Its relative viability is 0.14.

What about the relative viability ([1]; 8 µM) of the same cell line?
The relative viability was 0.056.

What about the relative viability (Obatoclax; 0.01 µM) of the same cell line?
Its relative viability is 0.987.

What about the relative viability (Obatoclax; 0.03162 µM) of the same cell line?
Its relative viability is 0.894.

And the relative viability (Obatoclax; 0.1 µM)?
The relative viability was 0.68.

And the relative viability (Obatoclax; 0.3162 µM)?
The relative viability was 0.711.

And the relative viability (Obatoclax; 1 µM)?
The relative viability was 0.303.

What does the source list for NCI-H522?
relative viability (Bortezomib; 0.0002 µM): 0.947; relative viability (Bortezomib; 0.000632 µM): 0.745; relative viability (Bortezomib; 0.002 µM): 1.02; relative viability (Bortezomib; 0.006325 µM): 0.638; relative viability (Bortezomib; 0.02 µM): 0.415; relative viability ([1]; 0.08 µM): 0.917; relative viability ([1]; 0.253 µM): 0.89; relative viability ([1]; 0.8 µM): 0.962; relative viability ([1]; 2.53 µM): 0.554; relative viability ([1]; 8 µM): 0.444; relative viability (Obatoclax; 0.01 µM): 0.951; relative viability (Obatoclax; 0.03162 µM): 0.894; relative viability (Obatoclax; 0.1 µM): 0.861; relative viability (Obatoclax; 0.3162 µM): 0.876; relative viability (Obatoclax; 1 µM): 0.904

With NCI-H460 as the cell line, how does the relative viability (Bortezomib; 0.0002 µM) read?
The relative viability was 0.971.

What about the relative viability (Bortezomib; 0.000632 µM) of the same cell line?
The relative viability was 0.97.

And the relative viability (Bortezomib; 0.002 µM)?
Its relative viability is 1.03.

And the relative viability (Bortezomib; 0.002 µM, anchor plate)?
The relative viability was 1.09.

And the relative viability (Bortezomib; 0.006325 µM)?
Its relative viability is 0.542.

And the relative viability (Bortezomib; 0.02 µM)?
Its relative viability is 0.0702.

What about the relative viability ([1]; 0.08 µM) of the same cell line?
The relative viability was 1.01.

What about the relative viability ([1]; 0.253 µM) of the same cell line?
Its relative viability is 1.03.

What about the relative viability ([1]; 0.8 µM) of the same cell line?
The relative viability was 1.01.

What about the relative viability ([1]; 2.53 µM) of the same cell line?
The relative viability was 0.597.

What about the relative viability ([1]; 8 µM) of the same cell line?
The relative viability was 0.0321.

What about the relative viability (Obatoclax; 0.01 µM) of the same cell line?
Its relative viability is 1.

What about the relative viability (Obatoclax; 0.03162 µM) of the same cell line?
Its relative viability is 0.936.

What about the relative viability (Obatoclax; 0.1 µM) of the same cell line?
Its relative viability is 0.882.

What about the relative viability (Obatoclax; 0.3162 µM) of the same cell line?
Its relative viability is 0.746.

And the relative viability (Obatoclax; 1 µM)?
The relative viability was 0.56.

Which relative viability (Bortezomib; 0.0002 µM) does the source give for EMC-BAC-2 here?
Its relative viability is 0.938.

And the relative viability (Bortezomib; 0.000632 µM)?
Its relative viability is 0.961.

What about the relative viability (Bortezomib; 0.002 µM) of the same cell line?
The relative viability was 0.999.

And the relative viability (Bortezomib; 0.002 µM, anchor plate)?
The relative viability was 1.11.

What about the relative viability (Bortezomib; 0.006325 µM) of the same cell line?
Its relative viability is 0.543.

And the relative viability (Bortezomib; 0.02 µM)?
The relative viability was 0.2.

What about the relative viability ([1]; 0.08 µM) of the same cell line?
The relative viability was 0.939.

And the relative viability ([1]; 0.253 µM)?
Its relative viability is 1.03.

What about the relative viability ([1]; 0.8 µM) of the same cell line?
The relative viability was 0.886.

And the relative viability ([1]; 2.53 µM)?
The relative viability was 0.477.

What about the relative viability ([1]; 8 µM) of the same cell line?
Its relative viability is 0.246.

And the relative viability (Obatoclax; 0.01 µM)?
The relative viability was 0.973.

And the relative viability (Obatoclax; 0.03162 µM)?
The relative viability was 0.957.

What about the relative viability (Obatoclax; 0.1 µM) of the same cell line?
The relative viability was 0.74.

And the relative viability (Obatoclax; 0.3162 µM)?
The relative viability was 0.96.

And the relative viability (Obatoclax; 1 µM)?
Its relative viability is 0.819.

With NCI-H23 as the cell line, how does the relative viability (Bortezomib; 0.0002 µM) read?
The relative viability was 0.777.

What about the relative viability (Bortezomib; 0.000632 µM) of the same cell line?
Its relative viability is 0.72.

What about the relative viability (Bortezomib; 0.002 µM) of the same cell line?
Its relative viability is 0.995.

And the relative viability (Bortezomib; 0.002 µM, anchor plate)?
The relative viability was 1.09.

What about the relative viability (Bortezomib; 0.006325 µM) of the same cell line?
The relative viability was 0.294.

What about the relative viability (Bortezomib; 0.02 µM) of the same cell line?
The relative viability was 0.134.

What about the relative viability ([1]; 0.08 µM) of the same cell line?
Its relative viability is 0.891.

What about the relative viability ([1]; 0.253 µM) of the same cell line?
The relative viability was 0.886.

What about the relative viability ([1]; 0.8 µM) of the same cell line?
The relative viability was 0.796.

And the relative viability ([1]; 2.53 µM)?
Its relative viability is 0.225.

What about the relative viability ([1]; 8 µM) of the same cell line?
Its relative viability is 0.144.

What about the relative viability (Obatoclax; 0.01 µM) of the same cell line?
The relative viability was 1.01.

What about the relative viability (Obatoclax; 0.03162 µM) of the same cell line?
The relative viability was 0.853.

What about the relative viability (Obatoclax; 0.1 µM) of the same cell line?
The relative viability was 0.832.

What about the relative viability (Obatoclax; 0.3162 µM) of the same cell line?
Its relative viability is 0.761.

What about the relative viability (Obatoclax; 1 µM) of the same cell line?
Its relative viability is 0.389.

Which relative viability (Bortezomib; 0.0002 µM) does the source give for NCI-H1623 here?
The relative viability was 0.955.

What about the relative viability (Bortezomib; 0.000632 µM) of the same cell line?
Its relative viability is 1.01.

What about the relative viability (Bortezomib; 0.002 µM) of the same cell line?
The relative viability was 0.766.

And the relative viability (Bortezomib; 0.006325 µM)?
The relative viability was 0.325.

And the relative viability (Bortezomib; 0.02 µM)?
The relative viability was 0.273.

And the relative viability ([1]; 0.08 µM)?
The relative viability was 0.956.

What about the relative viability ([1]; 0.253 µM) of the same cell line?
Its relative viability is 1.13.

And the relative viability ([1]; 0.8 µM)?
The relative viability was 1.01.

And the relative viability ([1]; 2.53 µM)?
Its relative viability is 0.843.

What about the relative viability ([1]; 8 µM) of the same cell line?
The relative viability was 0.542.

And the relative viability (Obatoclax; 0.01 µM)?
Its relative viability is 0.98.

What about the relative viability (Obatoclax; 0.03162 µM) of the same cell line?
The relative viability was 0.978.

What about the relative viability (Obatoclax; 0.1 µM) of the same cell line?
Its relative viability is 1.24.

What about the relative viability (Obatoclax; 0.3162 µM) of the same cell line?
Its relative viability is 1.04.

And the relative viability (Obatoclax; 1 µM)?
The relative viability was 0.956.

Which relative viability (Bortezomib; 0.0002 µM) does the source give for A-427 here?
Its relative viability is 0.841.

What about the relative viability (Bortezomib; 0.000632 µM) of the same cell line?
The relative viability was 0.905.

And the relative viability (Bortezomib; 0.002 µM)?
Its relative viability is 1.05.

What about the relative viability (Bortezomib; 0.002 µM, anchor plate) of the same cell line?
The relative viability was 0.998.

What about the relative viability (Bortezomib; 0.006325 µM) of the same cell line?
Its relative viability is 0.233.

And the relative viability (Bortezomib; 0.02 µM)?
Its relative viability is 0.169.

What about the relative viability ([1]; 0.08 µM) of the same cell line?
The relative viability was 1.05.

And the relative viability ([1]; 0.253 µM)?
Its relative viability is 0.908.

And the relative viability ([1]; 0.8 µM)?
Its relative viability is 0.942.

And the relative viability ([1]; 2.53 µM)?
Its relative viability is 0.286.

And the relative viability ([1]; 8 µM)?
The relative viability was 0.172.

What about the relative viability (Obatoclax; 0.01 µM) of the same cell line?
The relative viability was 0.968.

And the relative viability (Obatoclax; 0.03162 µM)?
The relative viability was 0.972.

What about the relative viability (Obatoclax; 0.1 µM) of the same cell line?
Its relative viability is 0.86.

And the relative viability (Obatoclax; 0.3162 µM)?
The relative viability was 0.954.

And the relative viability (Obatoclax; 1 µM)?
Its relative viability is 0.719.

For ABC-1, which relative viability (Bortezomib; 0.0002 µM) is on record?
The relative viability was 0.779.

And the relative viability (Bortezomib; 0.000632 µM)?
Its relative viability is 0.566.

What about the relative viability (Bortezomib; 0.002 µM) of the same cell line?
Its relative viability is 0.271.

And the relative viability (Bortezomib; 0.002 µM, anchor plate)?
Its relative viability is 0.321.

What about the relative viability (Bortezomib; 0.006325 µM) of the same cell line?
The relative viability was 0.216.

And the relative viability (Bortezomib; 0.02 µM)?
Its relative viability is 0.242.

What about the relative viability ([1]; 0.08 µM) of the same cell line?
Its relative viability is 0.835.

And the relative viability ([1]; 0.253 µM)?
Its relative viability is 0.888.

And the relative viability ([1]; 0.8 µM)?
The relative viability was 1.16.

And the relative viability ([1]; 2.53 µM)?
The relative viability was 0.341.

What about the relative viability ([1]; 8 µM) of the same cell line?
Its relative viability is 0.227.

And the relative viability (Obatoclax; 0.01 µM)?
Its relative viability is 1.05.

What about the relative viability (Obatoclax; 0.03162 µM) of the same cell line?
Its relative viability is 0.971.

What about the relative viability (Obatoclax; 0.1 µM) of the same cell line?
Its relative viability is 0.753.

What about the relative viability (Obatoclax; 0.3162 µM) of the same cell line?
Its relative viability is 0.828.

And the relative viability (Obatoclax; 1 µM)?
The relative viability was 0.448.

Which relative viability (Bortezomib; 0.0002 µM) does the source give for IA-LM here?
The relative viability was 0.871.

What about the relative viability (Bortezomib; 0.000632 µM) of the same cell line?
The relative viability was 0.991.

What about the relative viability (Bortezomib; 0.002 µM) of the same cell line?
Its relative viability is 0.833.

And the relative viability (Bortezomib; 0.002 µM, anchor plate)?
The relative viability was 0.817.

And the relative viability (Bortezomib; 0.006325 µM)?
The relative viability was 0.0932.

And the relative viability (Bortezomib; 0.02 µM)?
The relative viability was 0.0256.

And the relative viability ([1]; 0.08 µM)?
Its relative viability is 0.852.

What about the relative viability ([1]; 0.253 µM) of the same cell line?
Its relative viability is 1.07.

What about the relative viability ([1]; 0.8 µM) of the same cell line?
Its relative viability is 1.1.

What about the relative viability ([1]; 2.53 µM) of the same cell line?
The relative viability was 0.866.

And the relative viability ([1]; 8 µM)?
Its relative viability is 0.231.

What about the relative viability (Obatoclax; 0.01 µM) of the same cell line?
The relative viability was 0.93.

What about the relative viability (Obatoclax; 0.03162 µM) of the same cell line?
Its relative viability is 0.935.

What about the relative viability (Obatoclax; 0.1 µM) of the same cell line?
The relative viability was 0.854.

What about the relative viability (Obatoclax; 0.3162 µM) of the same cell line?
The relative viability was 0.625.

And the relative viability (Obatoclax; 1 µM)?
Its relative viability is 0.203.
